According to patent US10112937B2, “P2X7 modulators and methods of use” (Janssen Pharmaceutica NV, priority 2013, dated 2018):
Where a name gives a salt, the structure may show the parent alone.

molecular target: human P2X7 (Homo sapiens (Human), UniProt Q99572); assay: P2X7 antagonism in human PBMCs (IL-1β release after LPS + Bz-ATP, ELISA); format: cell-based; conditions: 10 μM test compound, human PBMCs, LPS + Bz-ATP
Sequence (Q99572 whole entry): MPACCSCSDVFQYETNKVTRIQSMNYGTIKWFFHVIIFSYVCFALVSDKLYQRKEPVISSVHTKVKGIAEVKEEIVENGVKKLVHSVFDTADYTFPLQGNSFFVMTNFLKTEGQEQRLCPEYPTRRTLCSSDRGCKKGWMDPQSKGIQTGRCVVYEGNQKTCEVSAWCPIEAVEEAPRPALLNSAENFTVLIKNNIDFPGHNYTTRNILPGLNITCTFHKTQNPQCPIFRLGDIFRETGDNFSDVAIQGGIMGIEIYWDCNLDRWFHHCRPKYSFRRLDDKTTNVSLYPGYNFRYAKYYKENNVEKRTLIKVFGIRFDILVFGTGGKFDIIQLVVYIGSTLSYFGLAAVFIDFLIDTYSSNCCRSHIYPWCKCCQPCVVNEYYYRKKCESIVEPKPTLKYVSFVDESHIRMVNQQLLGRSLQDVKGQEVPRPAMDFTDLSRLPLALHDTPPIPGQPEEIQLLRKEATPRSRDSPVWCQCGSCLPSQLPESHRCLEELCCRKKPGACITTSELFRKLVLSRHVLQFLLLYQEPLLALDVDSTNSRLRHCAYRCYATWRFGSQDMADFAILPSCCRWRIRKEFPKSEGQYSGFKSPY

Row | Structure (SMILES) | PBMC 10 μM (% control)
1 | Cc1ccnc(-n2nnc3c2CCN(C(=O)c2cccc(C(F)(F)F)c2Cl)[C@H]3C)n1 (single isomer, unassigned) [Example 439, (S*)-(2-chloro-3-(trifluoromethyl)phenyl)(4-methyl-1-(4-methylpyrimidin-2-yl)-6,7-dihydro-1H-[1,2,3]triazolo[4,5-c]pyridin-5(4H)-yl)methanone] | 1.2 % control

same assay, conditions: human PBMCs, test compound 1 μM

Row | Structure (SMILES) | PBMC 1 μM (% control)
2 | O=C(c1cccc(Cl)c1Cl)N1CCc2c(ncn2-c2ccccc2)C1 [Example 3, (2,3-Dichlorophenyl)(1-phenyl-6,7-dihydro-1H-imidazo[4,5-c]pyridin-5(4H)-yl)methanone] | 23.0 % control
3 | CC1c2ncn(-c3ccccn3)c2CCN1C(=O)c1cccc(C(F)(F)F)c1Cl (centres unmarked) [Example 17, (2-Chloro-3-(trifluoromethyl)phenyl)(4-methyl-1-(pyridin-2-yl)-6,7-dihydro-1H-imidazo[4,5-c]pyridin-5(4H)-yl)methanone] | 6.5 % control
4 | CC1c2ncn(-c3ccc(F)cc3)c2CCN1C(=O)c1cccc(C(F)(F)F)c1Cl (centres unmarked) [Example 18, (2-Chloro-3-(trifluoromethyl)phenyl)(1-(4-fluorophenyl)-4-methyl-6,7-dihydro-1H-imidazo[4,5-c]pyridin-5(4H)-yl)methanone] | 5.3 % control
5 | O=C(c1cccc(C(F)(F)F)c1Cl)N1CCc2c(ncn2-c2ccccc2)C1CO (centres unmarked) [Example 30, (5-{[2-Chloro-3-(trifluoromethyl)phenyl]carbonyl}-1-phenyl-4,5,6,7-tetrahydro-1H-imidazo[4,5-c]pyridin-4-yl)methanol] | 87.0 % control
6 | O=C(c1cccc2c1OC(F)(F)O2)N1CCc2c(ncn2-c2ccccc2)C1 [Example 50, 5-[(2,2-Difluoro-1,3-benzodioxol-4-yl)carbonyl]-1-phenyl-4,5,6,7-tetrahydro-1H-imidazo[4,5-c]pyridine] | 96.0 % control
7 | O=C(c1cccc(C(F)(F)F)c1Cl)N1C=Cc2c(ncn2-c2cnccn2)C1 [Example 54, 5-{[2-Chloro-3-(trifluoromethyl)phenyl]carbonyl}-1-pyrazin-2-yl-4,5-dihydro-1H-imidazo[4,5-c]pyridine] | 8.6 % control
8 | O=C(c1cccc(Cl)c1Cl)N1CCc2c(nnn2-c2ccccc2)C1 [Example 62, 5-[(2,3-Dichlorophenyl)carbonyl]-1-phenyl-4,5,6,7-tetrahydro-1H-[1,2,3]triazolo[4,5-c]pyridine] | 5.2 % control
9 | CC1c2nnn(-c3cnccn3)c2C=CN1C(=O)c1cccc(C(F)(F)F)c1Cl (centres unmarked) [Example 72, 5-{[2-Chloro-3-(trifluoromethyl)phenyl]carbonyl}-4-methyl-1-pyrazin-2-yl-4,5-dihydro-1H-[1,2,3]triazolo[4,5-c]pyridine] | −5.7 % control
10 | CC1c2nnn(-c3cnccn3)c2CCN1C(=O)c1cccc(C(F)(F)F)c1Cl (centres unmarked) [Example 73, 5-{[2-Chloro-3-(trifluoromethyl)phenyl]carbonyl}-4-methyl-1-pyrazin-2-yl-4,5,6,7-tetrahydro-1H-[1,2,3]triazolo[4,5-c]pyridine] | 4.3 % control
11 | O=C(c1cccc(C(F)(F)F)c1Cl)N1C=Cc2c(nnn2-c2cnccn2)C1c1ccccc1 (centres unmarked) [Example 76, 5-{[2-Chloro-3-(trifluoromethyl)phenyl]carbonyl}-4-phenyl-1-pyrazin-2-yl-4,5-dihydro-1H-[1,2,3]triazolo[4,5-c]pyridine] | 1.6 % control
12 | O=C(c1cccc(C(F)(F)F)c1Cl)N1C=Cc2c(nnn2-c2cnccn2)C1 [Example 89, 5-{[2-Chloro-3-(trifluoromethyl)phenyl]carbonyl}-1-pyrazin-2-yl-4,5-dihydro-1H-[1,2,3]triazolo[4,5-c]pyridine] | −1.5 % control
13 | O=C(c1cccc(C(F)(F)F)c1Cl)N1CCc2c(nnn2-c2cnccn2)C1 [Example 91, 5-{[2-Chloro-3-(trifluoromethyl)phenyl]carbonyl}-1-pyrazin-2-yl-4,5,6,7-tetrahydro-1H-[1,2,3]triazolo[4,5-c]pyridine] | 6.1 % control
14 | Cn1nc2c(c1-c1ccccn1)CCN(C(=O)c1cccc(C(F)(F)F)c1Cl)C2 [Example 92, 6-{[2-Chloro-3-(trifluoromethyl)phenyl]carbonyl}-2-methyl-3-pyridin-2-yl-4,5,6,7-tetrahydro-2H-pyrazolo[3,4-c]pyridine] | 2.7 % control
15 | O=C(c1cccc(C(F)(F)F)c1Cl)N1CCc2c(-c3ccccn3)n[nH]c2C1 [Example 93, 6-{[2-Chloro-3-(trifluoromethyl)phenyl]carbonyl}-3-pyridin-2-yl-4,5,6,7-tetrahydro-2H-pyrazolo[3,4-c]pyridine-TFA salt] | 9.0 % control
16 | O=C(c1cccc(C(F)(F)F)c1Cl)N1CCc2c(-c3ccccc3)n[nH]c2C1 [Example 99, (2-Chloro-3-(trifluoromethyl)phenyl)(3-phenyl-4,5-dihydro-1H-pyrazolo[3,4-c]pyridin-6(7H)-yl)methanone] | 7.0 % control

same assay, conditions: human PBMCs, test compound 10 μM

Row | Structure (SMILES) | PBMC 10 μM (% control)
17 | O=C(c1cccc(Cl)c1Cl)N1CCc2c(ncn2-c2ccccn2)C1 [Example 4, (2,3-Dichlorophenyl)(1-(pyridin-2-yl)-6,7-dihydro-1H-imidazo[4,5-c]pyridin-5(4H)-yl)methanone] | −3.7 % control
18 | CC1c2ncn(-c3ccc(F)cn3)c2CCN1C(=O)c1cccc(C(F)(F)F)c1Cl (centres unmarked) [Example 11, (2-Chloro-3-(trifluoromethyl)phenyl)(1-(5-fluoropyridin-2-yl)-4-methyl-6,7-dihydro-1H-imidazo[4,5-c]pyridin-5(4H)-yl)methanone] | 3.7 % control
19 | CC1c2ncn(-c3ccc(F)cc3)c2CCN1C(=O)c1cccc(C(F)(F)F)c1F (centres unmarked) [Example 20, (2-Fluoro-3-(trifluoromethyl)phenyl)(1-(4-fluorophenyl)-4-methyl-6,7-dihydro-1H-imidazo[4,5-c]pyridin-5(4H)-yl)methanone] | 8.6 % control
20 | Cc1nc2c(n1-c1ccccc1)CCN(C(=O)c1cccc(C(F)(F)F)c1Cl)C2 [Example 37, (2-Chloro-3-(trifluoromethyl)phenyl)(2-methyl-1-phenyl-6,7-dihydro-1H-imidazo[4,5-c]pyridin-5(4H)-yl)methanone] | −9.1 % control
21 | O=C(c1cccc(C(F)(F)F)c1Cl)N1CCc2c(nc(C(F)(F)F)n2-c2ccccc2)C1 [Example 38, (2-Chloro-3-(trifluoromethyl)phenyl)(1-phenyl-2-(trifluoromethyl)-6,7-dihydro-1H-imidazo[4,5-c]pyridin-5(4H)-yl)methanone] | −0.3 % control
22 | O=C(c1cccc(Cl)c1Cl)N1CCc2c(nc(C(F)(F)F)n2-c2ccccc2)C1 [Example 58, 5-[(2,3-Dichlorophenyl)carbonyl]-1-phenyl-2-(trifluoromethyl)-4,5,6,7-tetrahydro-1H-imidazo[4,5-c]pyridine] | −2.0 % control
23 | O=C(c1cccc(Cl)c1Cl)N1CCc2c(ncn2-c2ccn[nH]2)C1 [Example 60, 5-[(2,3-Dichlorophenyl)carbonyl]-1-(1H-pyrazol-5-yl)-4,5,6,7-tetrahydro-1H-imidazo[4,5-c]pyridine] | 8.4 % control
24 | O=C(c1cccc(C(F)(F)F)c1Cl)N1CCc2c(nnn2-c2ncccn2)C1 [Example 65, 5-{[2-Chloro-3-(trifluoromethyl)phenyl]carbonyl}-1-pyrimidin-2-yl-4,5,6,7-tetrahydro-1H-[1,2,3]triazolo[4,5-c]pyridine] | 5.8 % control
25 | O=C(c1cccc(C(F)(F)F)c1F)N1CCc2c(nnn2-c2cnccn2)C1 [Example 69, 5-{[2-Fluoro-3-(trifluoromethyl)phenyl]carbonyl}-1-pyrazin-2-yl-4,5,6,7-tetrahydro-1H-[1,2,3]triazolo[4,5-c]pyridine] | 6.8 % control
26 | CC1c2nnn(-c3ncccn3)c2CCN1C(=O)c1cccc(C(F)(F)F)c1Cl (centres unmarked) [Example 80, 5-{[2-Chloro-3-(trifluoromethyl)phenyl]carbonyl}-4-methyl-1-pyrimidin-2-yl-4,5,6,7-tetrahydro-1H-[1,2,3]triazolo[4,5-c]pyridine] | 4.6 % control
27 | CC1c2nnn(-c3ccc(F)cc3)c2C=CN1C(=O)c1cccc(C(F)(F)F)c1Cl (centres unmarked) [Example 81, 5-{[2-Chloro-3-(trifluoromethyl)phenyl]carbonyl}-1-(4-fluorophenyl)-4-methyl-4,5-dihydro-1H-[1,2,3]triazolo[4,5-c]pyridine] | 5.9 % control
28 | CC1c2nnn(-c3ncccc3F)c2C=CN1C(=O)c1cccc(C(F)(F)F)c1Cl (centres unmarked) [Example 82, 5-{[2-Chloro-3-(trifluoromethyl)phenyl]carbonyl}-1-(3-fluoropyridin-2-yl)-4-methyl-4,5-dihydro-1H-[1,2,3]triazolo[4,5-c]pyridine] | 7.9 % control
29 | CC1c2nnn(-c3ccc(F)cc3)c2CCN1C(=O)c1cccc(C(F)(F)F)c1Cl (centres unmarked) [Example 83, 5-{[2-Chloro-3-(trifluoromethyl)phenyl]carbonyl}-1-(4-fluorophenyl)-4-methyl-4,5,6,7-tetrahydro-1H-[1,2,3]triazolo[4,5-c]pyridine] | 4.5 % control
30 | CC1c2nnn(-c3ncccc3F)c2CCN1C(=O)c1cccc(C(F)(F)F)c1Cl (centres unmarked) [Example 84, 5-{[2-Chloro-3-(trifluoromethyl)phenyl]carbonyl}-1-(3-fluoropyridin-2-yl)-4-methyl-4,5,6,7-tetrahydro-1H-[1,2,3]triazolo[4,5-c]pyridine] | 8.5 % control
31 | CC1c2nnn(-c3cc[nH]n3)c2C=CN1C(=O)c1cccc(C(F)(F)F)c1Cl (centres unmarked) [Example 86, 5-{[2-Chloro-3-(trifluoromethyl)phenyl]carbonyl}-4-methyl-1-(1H-pyrazol-3-yl)-4,5-dihydro-1H-[1,2,3]triazolo[4,5-c]pyridine] | 13.0 % control
32 | O=C(c1cccc(C(F)(F)F)c1Cl)N1CCc2c(-c3cccnc3)n[nH]c2C1 [Example 96, 6-{[2-Chloro-3-(trifluoromethyl)phenyl]carbonyl}-3-pyridin-3-yl-4,5,6,7-tetrahydro-2H-pyrazolo[3,4-c]pyridine] | 3.6 % control
